US20230146239A1 (THE SCRIPPS RESEARCH INSTITUTE, priority 2020, published 2023)
Converted amounts (≈) assume the structure as drawn. Read-outs that look alike come from different tables or passages of the source.

Columns and labels:
[1] = test system: VanA E. faecalis (BM 4166); test: In vitro antimicrobial microdilution assay (MIC); assay type: cell-based, Enterococcus faecalis
[2] = test system: VanA E. faecium (ATCC BAA-2317); test: In vitro antimicrobial microdilution assay (MIC); assay type: cell-based, Enterococcus faecium
[3] = test system: VanA E. faecalis (ATCC BAA-2573); test: In vitro antimicrobial microdilution assay (MIC); assay type: cell-based, Enterococcus faecalis
VanA E. faecium (TX2465) = test: In vitro antimicrobial microdilution assay (MIC); assay type: cell-based, Enterococcus faecium
[4] = test system: VanA VRE E. faecalis BM 4166 and E. faecium ATCC BAA-2317; assay type: cell-based, Enterococcus faecalis, Enterococcus faecium; settings: 10 μM added at 5 minutes
Description: The above bacterial solution was subjected to a subculture to obtain fresh mid-log phase bacterial cells (incubation time=6 hours). The bacterial suspension was diluted to a total volume of 7 mL with OD600=0.6.
After the cultured bacteria were harvested (3000 rpm, 4° C., 20 minutes), the white bacterial precipitate was washed and resuspended in 5 mM glucose and 5 mM HEPES buffer (1:1, 5.00 mL, pH=7.2).

[5] = test system: VanA VRE E. faecalis (BM 4166); test: Impact of added LTA, phosphate, POPE on antimicrobial activity (MIC); assay type: cell-based, Enterococcus faecalis
Description: When NaH2PO4 or POPE was used instead of LTA, 10% brain-heart infusion broth containing 0.002% Tween®-80 with 100 μg/mL NaH2PO4 or 100 μg/mL POPE was used as the culture medium used for serial dilution. When additional G3 (H2N^+(CH2)3NHC(NH2)═NH2^+.2TFA) or Mg^2+ was used, 10% brain-heart infusion broth containing 0.002% Tween®-80 with 100 μg/mL G3 or 100 μg/mL MgCl2 and 100 μg/mL lipoteichoic acid was used as the culture medium for serial dilution of study group, 10% brain-heart infusion broth containing 0.002% Tween®-80 with 100 μg/mL G3 was used as the culture medium for serial dilution of control group.

[6] = test system: two VanA VRE strains (E. faecalis BM4166, E. faecium ATCC BAA-2317); test: Resistance development assay, durability (serial passaging at 0.5×MIC); assay type: cell-based, Enterococcus faecalis, Enterococcus faecium; settings: 50 passages
Description: The lowest concentration of antibiotic (in μg/mL) capable of eliminating cell growth in the wells is the reported MIC value.
A new MIC assay was performed with the same protocol above. This process was repeated for 50 passages, and the fold increase in MIC was determined after each passage.

Row | SMILES | MIC, VanA E. faecalis BM 4166 [1] | MIC, VanA E. faecium ATCC BAA-2317 [2] | MIC, VanA E. faecalis ATCC BAA-2573 [3] | MIC, VanA E. faecium TX2465 (VanA E. faecium (TX2465)) | other results
1 | CN[C@H](CC(C)C)C(=O)N[C@H]1C(=O)N[C@@H](CC(N)=O)C(=O)N[C@H]2C(=O)NC3C(=O)N[C@H](C(=O)N[C@H](C(=O)N[C@@H](CCCNC(N)=O)C(=O)OC)c4cc(O)cc(O)c4-c4cc3ccc4O)[C@H](O)c3ccc(c(Cl)c3)Oc3cc2cc(c3OC2OC(CO)C(O)[C@H](O)[C@@H]2O[C@H]2CC(C)(N)[C@H](O)[C@H](C)O2)Oc2ccc(cc2Cl)[C@H]1O (some centres unmarked) [Compound 13, Cit(OMe)-vancomycin] | 63 µg/mL (≈ 38.9 µM) | 31 µg/mL (≈ 19.1 µM) | 16 µg/mL (≈ 9.87 µM) | 63 µg/mL (≈ 38.9 µM) | –
2 | CN[C@H](CC(C)C)C(=O)N[C@H]1C(=O)N[C@@H](CC(N)=O)C(=O)N[C@H]2C(=O)NC3C(=O)N[C@H](C(=O)N[C@H](C(=O)NCCCCCCNC(=N)N)c4cc(O)cc(O)c4-c4cc3ccc4O)[C@H](O)c3ccc(c(Cl)c3)Oc3cc2cc(c3OC2OC(CO)C(O)[C@H](O)[C@@H]2O[C@H]2CC(C)(N)[C@H](O)[C@H](C)O2)Oc2ccc(cc2Cl)[C@H]1O (some centres unmarked) [Compound 8, G6-vancomycin] | 16 µg/mL (≈ 10.1 µM) | 4 µg/mL (≈ 2.52 µM) | 4 µg/mL (≈ 2.52 µM) | 16 µg/mL (≈ 10.1 µM) | –
3 | CN[C@H](CC(C)C)C(=O)N[C@H]1C(=O)N[C@@H](CC(N)=O)C(=O)N[C@H]2C(=O)N[C@H]3C(=O)N[C@H](C(=O)N[C@H](C(=O)N[C@@H](CCCNC(N)=O)C(=O)OC)c4cc(O)cc(O)c4-c4cc3ccc4O)[C@H](O)c3ccc(c(Cl)c3)Oc3cc2cc(c3OC2OC(CO)C(O)[C@H](O)C2O[C@H]2CC(C)(NCc3ccc(-c4ccc(Cl)cc4)cc3)[C@H](O)[C@H](C)O2)Oc2ccc(cc2Cl)[C@H]1O (some centres unmarked) [Compound 23, Cit(OMe)-CBP-vancomycin] | – | – | – | – | bacterial cell membrane permeabilization [4]: reduced bacteria cell permeabilization
4 | CN[C@H](CC(C)C)C(=O)N[C@H]1C(=O)N[C@@H](CC(N)=O)C(=O)N[C@H]2C(=O)NC3C(=O)N[C@H](C(=O)N[C@H](C(=O)NCCNC(=N)N)c4cc(O)cc(O)c4-c4cc3ccc4O)[C@H](O)c3ccc(c(Cl)c3)Oc3cc2cc(c3OC2OC(CO)C(O)[C@H](O)[C@@H]2O[C@H]2CC(C)(N)[C@H](O)[C@H](C)O2)Oc2ccc(cc2Cl)[C@H]1O (some centres unmarked) [Compound 6, G2-vancomycin] | 16 µg/mL (≈ 10.4 µM) | 4 µg/mL (≈ 2.61 µM) | 8 µg/mL (≈ 5.22 µM) | 16 µg/mL (≈ 10.4 µM) | –
5 | N=C(N)NCCCN [G3^+, H2N(CH2)3NHC(═NH2)NH2^+] | – | – | – | – | MIC ([5]; E. faecalis BM 4166, POPE 100 μg/mL, read-out: MIC, +POPE): > 800 µg/mL; MIC ([5]; E. faecalis BM 4166, read-out: MIC, −POPE): > 800 µg/mL
6 | CCCCCCCCCC(=O)N[C@@H](Cc1c[nH]c2ccccc12)C(=O)N[C@H](CC(N)=O)C(=O)N[C@@H](CC(=O)O)C(=O)N[C@@H]1C(=O)NCC(=O)N[C@@H](CCCN)C(=O)N[C@@H](CC(=O)O)C(=O)N[C@H](C)C(=O)N[C@@H](CC(=O)O)C(=O)NCC(=O)N[C@H](CO)C(=O)N[C@@H]([C@H](C)CC(=O)O)C(=O)N[C@@H](CC(=O)c2ccccc2N)C(=O)O[C@@H]1C [daptomycin] | – | – | – | – | resistance acquisition on serial passaging [6]: raise resistance more rapidly and in a more pronounced manner
7 | CN[C@H](CC(C)C)C(=O)N[C@H]1C(=O)N[C@@H](CC(N)=O)C(=O)N[C@H]2C(=O)N[C@H]3C(=O)N[C@H](C(=O)N[C@H](C(=O)N[C@@H](CCCNC(=N)N)C(=O)O)c4cc(O)cc(O)c4-c4cc3ccc4O)[C@H](O)c3ccc(c(Cl)c3)Oc3cc2cc(c3OC2OC(CO)C(O)[C@H](O)C2O[C@H]2CC(C)(NCc3ccc(-c4ccc(Cl)cc4)cc3)[C@H](O)[C@H](C)O2)Oc2ccc(cc2Cl)[C@H]1O (some centres unmarked) [Compound 21, Arg-CBP-vancomycin] | – | – | – | – | bacterial cell membrane permeabilization [4]: reduced bacteria cell permeabilization
8 | CN[C@H](CC(C)C)C(=O)N[C@H]1C(=O)N[C@@H](CC(N)=O)C(=O)N[C@H]2C(=O)NC3C(=O)N[C@H](C(=O)N[C@H](C(=O)N[C@@H](CCCNC(=N)N)C(N)=O)c4cc(O)cc(O)c4-c4cc3ccc4O)[C@H](O)c3ccc(c(Cl)c3)Oc3cc2cc(c3OC2OC(CO)C(O)[C@H](O)[C@@H]2O[C@H]2CC(C)(N)[C@H](O)[C@H](C)O2)Oc2ccc(cc2Cl)[C@H]1O (some centres unmarked) [Compound 12, Arg(NH2)-vancomycin] | 16 µg/mL (≈ 9.97 µM) | 4 µg/mL (≈ 2.49 µM) | 4 µg/mL (≈ 2.49 µM) | 8 µg/mL (≈ 4.99 µM) | –
9 | CN[C@H](CC(C)C)C(=O)N[C@H]1C(=O)N[C@@H](CC(N)=O)C(=O)N[C@H]2C(=O)N[C@H]3C(=O)N[C@H](C(=O)N[C@H](C(=O)N[C@@H](CCCNC(=N)N)C(=O)OC)c4cc(O)c(CN[C@@H](CCCNC(=N)N)C(=O)OC)c(O)c4-c4cc3ccc4O)[C@H](O)c3ccc(c(Cl)c3)Oc3cc2cc(c3OC2OC(CO)C(O)[C@H](O)C2O[C@H]2CC(C)(N)[C@H](O)[C@H](C)O2)Oc2ccc(cc2Cl)[C@H]1O (some centres unmarked) [Compound 28, Arg(OMe)-Arg(OMe)^Ar-vancomycin] | – | – | – | – | MIC ([1]; Enterococcus faecalis; read-out: MIC, VanA E. faecalis BM 4166): 8 µg/mL (≈ 4.4 µM); MIC ([2]; Enterococcus faecium, ATCCBAA2317; read-out: MIC, VanA E. faecium ATCC BAA-2317): 2 µg/mL (≈ 1.1 µM); MIC ([3]; Enterococcus faecalis, ATCCBAA2573, read-out: MIC, VanA E. faecalis ATCC BAA-2573): 1 µg/mL (≈ 0.55 µM); MIC (VanA E. faecium (TX2465); Enterococcus faecium, read-out: MIC, VanA E. faecium TX2465): 8 µg/mL (≈ 4.4 µM)
10 | CN[C@H](CC(C)C)C(=O)N[C@H]1C(=O)N[C@@H](CC(N)=O)C(=O)N[C@H]2C(=O)NC3C(=O)N[C@H](C(=O)N[C@H](C(=O)NC(CNC(=N)N)CNC(=N)N)c4cc(O)cc(O)c4-c4cc3ccc4O)[C@H](O)c3ccc(c(Cl)c3)Oc3cc2cc(c3OC2OC(CO)C(O)[C@H](O)[C@@H]2O[C@H]2CC(C)(N)[C@H](O)[C@H](C)O2)Oc2ccc(cc2Cl)[C@H]1O (some centres unmarked) [Compound 14, DiG-vancomycin] | 8 µg/mL (≈ 4.99 µM) | 1 µg/mL (≈ 0.623 µM) | 2 µg/mL (≈ 1.25 µM) | 4 µg/mL (≈ 2.49 µM) | –
11 | CN[C@H](CC(C)C)C(=O)N[C@H]1C(=O)N[C@@H](CC(N)=O)C(=O)N[C@H]2C(=O)NC3C(=O)N[C@H](C(=O)N[C@H](C(=O)N[C@@H](CCCNC(=N)N)C(=O)OC)c4cc(O)cc(O)c4-c4cc3ccc4O)[C@H](O)c3ccc(c(Cl)c3)Oc3cc2cc(c3OC2OC(CO)C(O)[C@H](O)[C@@H]2O[C@H]2CC(C)(N)[C@H](O)[C@H](C)O2)Oc2ccc(cc2Cl)[C@H]1O (some centres unmarked) [Compound 10, Arg(OMe)-vancomycin] | 8 µg/mL (≈ 4.94 µM) | 8 µg/mL (≈ 4.94 µM) | 4 µg/mL (≈ 2.47 µM) | 8 µg/mL (≈ 4.94 µM) | –
12 | CN[C@H](CC(C)C)C(=O)N[C@H]1C(=O)N[C@@H](CC(N)=O)C(=O)N[C@H]2C(=O)N[C@H]3C(=O)N[C@H](C(=O)N[C@H](C(=O)N[C@@H](CCCNC(=N)N)C(=O)O)c4cc(O)cc(O)c4-c4cc3ccc4O)[C@H](O)c3ccc(c(Cl)c3)Oc3cc2cc(c3OC2OC(CO)C(O)[C@H](O)C2O[C@H]2CC(C)(N)[C@H](O)[C@H](C)O2)Oc2ccc(cc2Cl)[C@H]1O (some centres unmarked) [Compound 11, Arg-vancomycin] | – | – | – | – | MIC ([1]; Enterococcus faecalis, read-out: MIC, VanA E. faecalis BM 4166): 63 µg/mL (≈ 39.2 µM); MIC ([2]; Enterococcus faecium, ATCCBAA2317, read-out: MIC, VanA E. faecium ATCC BAA-2317): 63 µg/mL (≈ 39.2 µM)
13 | CN(C)c1cc(NC(=O)CNC(C)(C)C)c(O)c2c1C[C@H]1C[C@H]3[C@H](N(C)C)C(O)=C(C(N)=O)C(=O)[C@@]3(O)C(O)=C1C2=O [tigecycline] | – | – | – | – | resistance acquisition on serial passaging [6]: raise resistance more rapidly and in a more pronounced manner
14 | CC(=O)NC[C@H]1CN(c2ccc(N3CCOCC3)c(F)c2)C(=O)O1 [linezolid] | – | – | – | – | resistance acquisition on serial passaging [6]: raise resistance more rapidly and in a more pronounced manner
15 | CN[C@H](CC(C)C)C(=O)N[C@H]1C(=O)N[C@@H](CC(N)=O)C(=O)N[C@H]2C(=O)NC3C(=O)N[C@H](C(=O)N[C@H](C(=O)NCCCCNC(=N)N)c4cc(O)cc(O)c4-c4cc3ccc4O)[C@H](O)c3ccc(c(Cl)c3)Oc3cc2cc(c3OC2OC(CO)C(O)[C@H](O)[C@@H]2O[C@H]2CC(C)(N)[C@H](O)[C@H](C)O2)Oc2ccc(cc2Cl)[C@H]1O (some centres unmarked) [Compound 7, G4-vancomycin] | 16 µg/mL (≈ 10.2 µM) | 4 µg/mL (≈ 2.56 µM) | 4 µg/mL (≈ 2.56 µM) | 16 µg/mL (≈ 10.2 µM) | –
